Test results reported in patent US12486260B2, “Indazolyl-isoxazole derivatives for the treatment of diseases such as cancer” (Merck Patent GmbH, priority 2019, dated 2025).
pIC50: −log10 of the molar value.

Tests used:
[1] = target: T1, mutant cKIT (Δ560-576 and V654A) in GIST430/654 cell line (Homo sapiens, UniProt P10721, DEL560-576/V654A); experiment: cellular testing of cKIT mutant inhibitors: cKIT autophosphorylation in GIST430/654 cells (Luminex); type: cell-based; conditions: Table 2, isoxazole vs corresponding triazole derivatives; phospho-Y307-cKIT, 45 min; read-out: Inhibition (IC50) of GIST 430/654
T1 construct: GIST430/654 cell line expressing mutated constitutively active cKIT receptor tyrosine kinase; endogenous in cells; host or cells: GIST430/654
Procedure: Assay Principle for Cellular Testing of cKIT Mutant Inhibitors
The GIST430/654 cell line expressing mutated constitutively active cKIT receptor tyrosine kinase (Δ560-576 and V654A) was employed for assessing cellular potency of compounds. Cellular activity of mutant cKIT was determined by the degree of cKIT autophosphorylation at tyrosine 307 using a Luminex-based bead assay. GIST430/654 cells were plated with 25,000 cells per well of a 96-well plate in 100 μl medium (85% IMDM/15% FCS supplemented with 100 nM Imatinib). At the following day compounds were added in a serial dilution for 45 min. Then, cells were lysed with 90 μl lysis buffer (20 mM Hepes pH 7.5, 200 mM NaCl, 1.5 mM MgCl2×6H2O, 0.4 mM EDTA, 1% Triton-X-100, 1% Phosphatase-Inhibitor II, 20 mM β-Glycerolphosphat, 0.1% Protease-Inhibitor Cocktail III, 0.01% Benzonase) und lysates were cleared by centrifugation through a 96-well filter plate (0.65 μm). Samples were incubated with Luminex-beads which were coupled with an anti-total cKIT antibody overnight at 4° C. under gentle agitation. […] The amount of phospho-Y307-cKIT was determined in a Luminex 200 instrument measuring 100 events per well within 60 seconds.
Counts from samples treated with compounds were calculated as percent of control from solvent treated (0.3% DMSO) samples. Dose-response curves were fitted and IC50 values were determined using Genedata Screener software.

c-Kit(V654A) = target: T2, c-Kit(V654A) (Homo sapiens, UniProt P10721, V654A); experiment: c-Kit(V654A) kinase assay (33P-ATP filter binding); type: biochemical; conditions: Table 2, isoxazole vs corresponding triazole derivatives; 200 μM ATP, 40 minutes; read-out: Inhibition (IC50) of c-Kit (V654A)
T2 construct: amino acids 544-end; GST (N)
Procedure: • HPLC/MS: Agilent 1200/6100 • eluent A: water+0.05% formic acid • eluent B: acetonitrile+0.04% formic acid • column: Chromolith HR RP-18e; 50-4.6 mm • flow rate: 3.3 ml/min • gradient: 0%→100% B: 0.0→2.0 min 100% B: 2.0→2.5 min • UV detection: 220 nm • MS detection: 65-800 amu positive HPLC/MS Conditions B: • HPLC/MS: Agilent 1200/6100 • eluent A: water+0.05% formic acid • eluent B: acetonitrile+0.04% formic acid • column: Kinetex XB-C18; 2.6 μm; 50-4.6 mm • flow rate: 2.5 ml/min • gradient: 0%→100% B: 0.0→1.4 min 100% B: 1.4→2.0 min • UV detection: 220 nm • MS detection: 65-800 amu positive UPLC/MS Conditions: • UPLC/MS: Waters Acquity/SQD • eluent A: water+0.05% formic acid • eluent B: acetonitrile+0.04% formic acid • column: Kinetex XB-C18; 1.7 μm; 50-2.1 mm • flow rate: 0.9 ml/min • gradient: 2%→100% B: 0.0→1.0 min 100% B: 1.0→1.3 min • UV detection: 220 nm/254 nm/MaxPlot/TotalPlot • MS detection: 61-800 amu positive Assays c-Kit(V654A) Assay:
c-Kit(V654A) (N-terminal GST-tagged, recombinant human c-Kit, amino acids 544-end containing the V654A mutation) is incubated with 8 mM MOPS pH 7.0, 0.2 mM EDTA, 250 μM GGMEDIYEFMGGKKK, 10 mM MgAcetate and [gamma-33P-ATP] (specific activity approx. 500 cpm/pmol, concentration 200 μM). The reaction is initiated by the addition of the MgATP mix. […]

T1 sequence (P10721 with tags, fused parts or gaps DEL560-576/V654A): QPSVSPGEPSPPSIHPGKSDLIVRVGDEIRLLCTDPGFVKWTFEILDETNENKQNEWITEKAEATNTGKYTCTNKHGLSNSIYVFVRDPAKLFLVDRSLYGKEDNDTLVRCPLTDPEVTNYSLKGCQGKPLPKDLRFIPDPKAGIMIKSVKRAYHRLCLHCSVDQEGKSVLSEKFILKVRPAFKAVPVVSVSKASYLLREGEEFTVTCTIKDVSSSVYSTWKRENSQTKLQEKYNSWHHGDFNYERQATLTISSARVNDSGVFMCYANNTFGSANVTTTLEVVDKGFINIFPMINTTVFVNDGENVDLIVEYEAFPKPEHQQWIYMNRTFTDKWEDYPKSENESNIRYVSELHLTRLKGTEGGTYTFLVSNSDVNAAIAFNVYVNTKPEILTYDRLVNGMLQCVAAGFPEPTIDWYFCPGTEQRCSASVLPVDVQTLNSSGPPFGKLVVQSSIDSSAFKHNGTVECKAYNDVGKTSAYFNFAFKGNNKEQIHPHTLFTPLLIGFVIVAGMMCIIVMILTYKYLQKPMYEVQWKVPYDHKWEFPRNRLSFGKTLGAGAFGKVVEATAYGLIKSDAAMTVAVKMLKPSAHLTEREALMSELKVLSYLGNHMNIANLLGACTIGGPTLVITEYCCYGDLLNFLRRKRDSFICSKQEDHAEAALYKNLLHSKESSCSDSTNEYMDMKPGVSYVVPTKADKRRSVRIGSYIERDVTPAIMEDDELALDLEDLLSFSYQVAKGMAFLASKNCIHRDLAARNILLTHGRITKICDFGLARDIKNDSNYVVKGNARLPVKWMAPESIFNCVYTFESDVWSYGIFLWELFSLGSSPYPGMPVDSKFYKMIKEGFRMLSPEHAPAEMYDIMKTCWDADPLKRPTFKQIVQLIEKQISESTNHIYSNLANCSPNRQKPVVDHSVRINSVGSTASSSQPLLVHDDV
T2 sequence (P10721 544-976 V654A): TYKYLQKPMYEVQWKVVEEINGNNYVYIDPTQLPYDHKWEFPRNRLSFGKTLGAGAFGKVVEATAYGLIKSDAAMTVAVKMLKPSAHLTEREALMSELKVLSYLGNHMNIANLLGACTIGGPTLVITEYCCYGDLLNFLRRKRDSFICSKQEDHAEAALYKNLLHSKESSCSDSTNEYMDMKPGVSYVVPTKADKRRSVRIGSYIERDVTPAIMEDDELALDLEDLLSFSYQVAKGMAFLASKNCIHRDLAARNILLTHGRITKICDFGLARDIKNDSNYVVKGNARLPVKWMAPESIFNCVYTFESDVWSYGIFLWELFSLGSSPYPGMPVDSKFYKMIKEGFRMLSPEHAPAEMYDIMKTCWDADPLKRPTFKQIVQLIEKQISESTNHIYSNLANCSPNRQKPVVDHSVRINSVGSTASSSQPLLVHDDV

Structure (SMILES) | pIC50 [1] | pIC50 (c-Kit(V654A))
COCCOc1cc2[nH]nc(-c3cn(-c4ccc(C(=O)N5CC(N6CCOCC6)C5)cc4)nn3)c2cc1F | 6.21 | 8.96
COCCOc1cc2[nH]nc(-c3cn(-c4ccc(C(=O)N5CC[C@@H]5C(C)(C)O)cc4)nn3)c2cc1F | 6.66 | 8.29
